What follows are compounds tested against T1, human DGAT1 enzyme (Homo sapiens, UniProt O75907) (assay: in vitro DGAT1 inhibition assay (microsomes, [14C]-palmitoyl-CoA, scintillation proximity)). Conditions: human DGAT1 expressed in Sf9 insect cell microsomes; 2 hours at room temperature; read-out: hDGAT IC50.
T1 construct: made in house; host or cells: Sf9 insect cells (microsomes)
T1 sequence (O75907 1-488): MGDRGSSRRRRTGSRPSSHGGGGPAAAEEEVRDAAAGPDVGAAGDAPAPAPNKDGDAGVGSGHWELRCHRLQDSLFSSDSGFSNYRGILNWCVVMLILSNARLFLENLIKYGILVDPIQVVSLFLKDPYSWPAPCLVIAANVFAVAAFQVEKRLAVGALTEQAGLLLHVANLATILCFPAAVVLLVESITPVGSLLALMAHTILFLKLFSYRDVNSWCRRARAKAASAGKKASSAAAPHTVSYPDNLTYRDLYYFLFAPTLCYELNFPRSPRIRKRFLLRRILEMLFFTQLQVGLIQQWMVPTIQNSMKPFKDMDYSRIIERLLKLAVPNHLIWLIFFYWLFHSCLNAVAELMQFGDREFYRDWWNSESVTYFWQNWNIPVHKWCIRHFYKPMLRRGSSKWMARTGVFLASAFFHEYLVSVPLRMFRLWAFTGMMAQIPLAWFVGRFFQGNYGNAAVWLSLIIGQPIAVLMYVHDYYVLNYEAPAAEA
Assay type: biochemical
Procedure: A useful assay to determine the DGAT inhibitory activity of the inventive compounds is described below:
The in vitro assay to identify DGAT1 inhibitors uses human DGAT1 enzyme expressed in Sf9 insect cells prepared as microsomes. The reaction is initiated by the addition of the combined substrates 1,2-dioleoyl-sn-glycerol and [^14C]-palmitoyl-CoA and incubated with test compounds and microsomal membranes for 2 hours at room temperature. The assay is stopped by adding 0.5 mg wheat germ agglutinin beads in assay buffer with 1% Brij-35 and 1% 3-cholamidopropyldimethyl-ammonio-1-propane sulfonate. Plates are sealed with TopSeal and incubated for 18 hours to allow the radioactive triglyceride product to come into proximity with the bead. Plates are read on a TopCount instrument.
Percent inhibition was calculated as the percent of (test compound inhibition minus non-specific binding) relative to (total binding minus non-specific binding). IC50 values were determined by curve fitting the data to a Sigmoidal dose-response in GraphPad Prism utilizing the following equation:
Y=A+(B−A)/(1+10̂((Log IC50−X))),
where A and B are the bottom and top of the curve (highest and lowest inhibition), respectively, and X is the logarithm of concentration.

IC50 | Compound
101 to 500 nM | O=C(Nc1ccc(N2CCN(C(=O)Nc3ccccc3F)CC2)nc1)c1oc(NC2CCN(Cc3ccccc3)C2)nc1C(F)(F)F (stereo not drawn) [Compound 307, 2-(1-benzylpyrrolidin-3-ylamino)-N-(6-(4-(2-fluorophenylcarbamoyl)piperazin-1-yl)pyridin-3-yl)-4-(trifluoromethyl)oxazole-5-carboxamide]
101 to 500 nM | C[C@@H]1CN(C(=O)Nc2ccccc2F)CCN1c1ccc(NC(=O)c2oc(N3CCC(c4ccccc4)CC3)nc2C(F)(F)F)cn1 [Compound 310, (R)—N-(6-(4-(2-fluorophenylcarbamoyl)-2-methylpiperazin-1-yl)pyridin-3-yl)-2-(4-phenylpiperidin-1-yl)-4-(trifluoromethyl)oxazole-5-carboxamide]
101 to 500 nM | CC1CCCN(c2nc(C(F)(F)F)c(C(=O)Nc3ccc(N4CCN(C(=O)Nc5ccccc5F)C[C@@H]4C)nc3)o2)C1 (stereo partly drawn) [Compound 315, N-(6-((S)-4-(2-fluorophenylcarbamoyl)-2-methylpiperazin-1-yl)pyridin-3-yl)-2-(3-methylpiperidin-1-yl)-4-(trifluoromethyl)oxazole-5-carboxamide]
11 to 100 nM | CN(CCc1ccccc1)c1nc(C(F)(F)F)c(C(=O)Nc2ccc(N3CCN(C(=O)Nc4ccccc4F)CC3)nc2)o1 [Compound 316, N-(6-(4-(2-fluorophenylcarbamoyl)piperazin-1-yl)pyridin-3-yl)-2-(methyl(phenethyl)amino)-4-(trifluoromethyl)oxazole-5-carboxamide]
11 to 100 nM | CN(CC1(c2ccccc2)CC1)c1nc(C(F)(F)F)c(C(=O)Nc2ccc(N3CCN(C(=O)Nc4ccccc4F)CC3)nc2)o1 [Compound 317, N-(6-(4-(2-fluorophenylcarbamoyl)piperazin-1-yl)pyridin-3-yl)-2-(methyl((1-phenylcyclopropyl)methyl)amino)-4-(trifluoromethyl)oxazole-5-carboxamide]
101 to 500 nM | Cc1cc(N2CCN(C(=O)Nc3ccccc3F)CC2)ncc1NC(=O)c1oc(N2CCCC(C)C2)nc1C(F)(F)F (stereo not drawn) [Compound 321, N-(6-(4-(2-fluorophenylcarbamoyl)piperazin-1-yl)-4-methylpyridin-3-yl)-2-(3-methylpiperidin-1-yl)-4-(trifluoromethyl)oxazole-5-carboxamide]
101 to 500 nM | O=C(Nc1ccc(N2CCN(C(=O)Nc3ccccc3F)CC2)nc1)c1oc(N2CCC(O)(c3ccccc3)CC2)nc1C(F)(F)F [Compound 324, N-(6-(4-(2-fluorophenylcarbamoyl)piperazin-1-yl)pyridin-3-yl)-2-(4-hydroxy-4-phenylpiperidin-1-yl)-4-(trifluoromethyl)oxazole-5-carboxamide]
101 to 500 nM | O=C(Nc1ccc(N2CCN(C(=O)Nc3ccccc3F)CC2)nc1)c1oc(N2CCC(F)(c3ccccc3)CC2)nc1C(F)(F)F [Compound 325, N-(6-(4-(2-fluorophenylcarbamoyl)piperazin-1-yl)pyridin-3-yl)-2-(4-fluoro-4-phenylpiperidin-1-yl)-4-(trifluoromethyl)oxazole-5-carboxamide]
101 to 500 nM | O=C(Nc1cnc(N2CCN(C(=O)Nc3ccccc3F)CC2)nc1)c1oc(N2CCC(c3ccccc3)CC2)nc1C(F)(F)F [Compound 327, N-(2-(4-(2-fluorophenylcarbamoyl)piperazin-1-yl)pyrimidin-5-yl)-2-(4-phenylpiperidin-1-yl)-4-(trifluoromethyl)oxazole-5-carboxamide]
101 to 500 nM | CC1CCCN(c2nc(C(F)(F)F)c(C(=O)Nc3ccc(-c4ccc(C(=O)NCCC(=O)O)cc4)cc3)o2)C1 (stereo not drawn) [Compound 328, 3-(4′-(2-(3-methylpiperidin-1-yl)-4-(trifluoromethyl)oxazole-5-carboxamido)biphenyl-4-ylcarboxamido)propanoic acid]
11 to 100 nM | Cc1ccccc1NC(=O)c1ccc(-c2ccc(NC(=O)c3oc(N4CCCC(C)C4)nc3C(F)(F)F)cn2)cc1 (stereo not drawn) [Compound 333, 2-(3-methylpiperidin-1-yl)-N-(6-(4-(o-tolylcarbamoyl)phenyl)pyridin-3-yl)-4-(trifluoromethyl)oxazole-5-carboxamide]
11 to 100 nM | O=C(Nc1ccc(N2CCN(C(=O)Nc3ccccc3F)CC2)nc1)c1oc(N2CCCCCC2)nc1C(F)(F)F [Compound 334, 2-(azepan-1-yl)-N-(6-(4-(2-fluorophenylcarbamoyl)piperazin-1-yl)pyridin-3-yl)-4-(trifluoromethyl)oxazole-5-carboxamide]
11 to 100 nM | O=C(Nc1ccc(N2CCN(C(=O)Nc3ccccc3F)CC2)nc1)c1oc(N2CCc3ccccc3C2)nc1C(F)(F)F [Compound 335, 2-(3,4-dihydroisoquinolin-2(1H)-yl)-N-(6-(4-(2-fluorophenylcarbamoyl)-piperazin-1-yl)pyridin-3-yl)-4-(trifluoromethyl)oxazole-5-carboxamide]
101 to 500 nM | O=C(Nc1ccc(N2CCN(C(=O)Nc3ccccc3F)CC2)nc1)c1oc(N2CCN(c3ccccc3F)CC2)nc1C(F)(F)F [Compound 336, 2-(4-(2-fluorophenyl)piperazin-1-yl)-N-(6-(4-(2-fluorophenylcarbamoyl)-piperazin-1-yl)pyridin-3-yl)-4-(trifluoromethyl)oxazole-5-carboxamide]
101 to 500 nM | CC1CCCN(c2nc(C(F)(F)F)c(C(=O)Nc3ccc(N4CCN(C(=O)[C@H]5CC[C@H](C(=O)O)CC5)CC4)nc3)o2)C1 (stereo partly drawn) [Compound 341, trans-4-[[4-[5-[[[2-(3-methyl-1-piperidinyl)-4-(trifluoromethyl)-5-oxazolyl]carbonyl]amino]-2-pyridinyl]-1-piperazinyl]carbonyl]cyclohexanecarboxylic acid]
